Where two headings read alike, the source gives them in different places. Where a SMILES comes first, the peptide text is derived from it. Bridges are numbered along the chain shown (N, C = ends). [ ]: non-standard residue; d: D form. S5 = C=CCCC[C@](C)(N)C(=O)O; Nle = CCCC[C@H](N)C(=O)O

For series [1], the target named is T1, α-chymotrypsin from bovine pancreas (Bos taurus, UniProt P00766, DEL14-15/DEL147-148).
T1 construct: purchased Sigma Type II; host or cells: bovine pancreas
As to the kind of experiment: Proteolytic stability against chymotrypsin. Type of series: in vitro ADME. As to conditions: for half-life at 55.5 μM: cattle, isolated enzyme chymotrypsin. The method, then: (§1) Figure 4. Biophysical analysis of stapled peptides. A, amino acid sequence alignment of the targeted TM regions and disrupting peptides. Cys residues are in the reduced state. Blue bridges indicate the stapled amino acid residues. […] Yields, purity, and MALDI-TOF data are shown for the stapled peptides and negative control. B, CD analysis of 30–50 μM peptides at 20 °C. For proteolytic stability studies, the peptide solution (55.5 μM for trypsin and chymotrypsin and 11.1 μM for serum) was incubated in the presence of 0.55 μg/ml trypsin from porcine pancreas (E), α-chymotrypsin (F), or mouse serum (G) at 37 °C for the indicated times (indicated on the x axis). Data are mean ± S.E. (error bars) (n = 3) percentage of intact peptide normalized to t = 0. Proteolytic half-lives and putative cleavage sites (predicted using the Expasy bioinformatics server's model with a 50% probability of cleavage) are indicated at the bottom of each panel. Positive correlation between helicity and half-life in trypsin/chymotrypsin (C) or serum (D) was determined by two-tailed Pearson's correlation test. TEXT PRINTED IN THE PICTURE: (B) TM7-TAT: Ellipticity (%): 3.4 | (B) TM6-TAT: Ellipticity (%): 18.3 | (B) TM5-TAT: Ellipticity (%): 20.9 | (B) 8: Ellipticity (%): 58.3 | (B) 9: Ellipticity (%): 46.4 | (B) 10: Ellipticity (%): 36.8 | (B) 11: Ellipticity (%): 46 | (E) TM7-TAT: Half-life (min): 21; #Cleavage sites: 8 | (E) TM6-TAT: Half-life (min): 40; #Cleavage sites: 7 | (E) TM5-TAT: Half-life (min): 33; #Cleavage sites: 8 | (E) 8: Half-life (min): 307; #Cleavage sites: 0 | (E) 9: Half-life (min): 178; #Cleavage sites: 0 | (E) 10: Half-life (min): 75; #Cleavage sites: 6 | (E) 11: Half-life (min): 84; #Cleavage sites: 0 | (F) TM7-TAT: Half-life (min): 22; #Cleavage sites: 6 | (F) TM6-TAT: Half-life (min): 32; #Cleavage sites: 7 | (F) TM5-TAT: Half-life (min): 28; #Cleavage sites: 7 | (F) 8: Half-life (min): 425; #Cleavage sites: 4 | (F) 9: Half-life (min): 198; #Cleavage sites: 3 | (F) 10: Half-life (min): 63; #Cleavage sites: 2 | (F) 11: Half-life (min): 79; #Cleavage sites: 4 | (G) TM7-TAT: Half-life (hours): 0.46 | (G) TM6-TAT: Half-life (hours): 0.55 | (G) TM5-TAT: Half-life (hours): 0.81 | (G) 8: Half-life (hours): ≥18 | (G) 9: Half-life (hours): 14.7 | (G) 10: Half-life (hours): 11.7 | (G) 11: Half-life (hours): 5.3 DOUBTS OF THE COPYIST ABOUT THIS PICTURE: Panel A table (Yield, Rt, Purity, [M+H+] calc., [M+H+] Peak Found for 7-11) left out as synthesis and mass-spectrum characterisation data; uncertain whether [M+H+] calc. should count as a molecular weight
(§2) Dose–response curves were fitted using a four-parameter logistic nonlinear regression mode. Peptide stability data were fitted using a nonlinear regression mode for dissociation kinetics. All statistical tests, curve fitting, and graphing were performed using GraphPad Prism 8 (GraphPad Software, La Jolla, CA).
To 100 μl of peptide solution (100 μM, dissolved in ammonium bicarbonate buffer, pH 7.5), 60 μl of ammonium bicarbonate buffer (pH 7.5) was added, together with 20 μl of temperature-equilibrated (37 ± 1 °C) α-chymotrypsin (5 μg/ml) from bovine pancreas (Sigma, Type II, activity > 40 units/mg protein). Peptides were incubated for 15, 30, 60, 120, 240, and 480 min, and then MeOH (HPLC grade) + 0.05% TFA was added. The samples were then centrifuged (15,000 rpm), and supernatant was analyzed in a similar manner as described above. The experiment was repeated twice on different days.

For series [2], the target named is T2, 5-HT2AR–CB1R heteromers (Homo sapiens, UniProt P28223).
T2 construct: expressed in transfected cells; host or cells: HEK293 (ATCC CRL-1573), transient reverse transfection
T2 sequence (P28223 2-471, one chain of several): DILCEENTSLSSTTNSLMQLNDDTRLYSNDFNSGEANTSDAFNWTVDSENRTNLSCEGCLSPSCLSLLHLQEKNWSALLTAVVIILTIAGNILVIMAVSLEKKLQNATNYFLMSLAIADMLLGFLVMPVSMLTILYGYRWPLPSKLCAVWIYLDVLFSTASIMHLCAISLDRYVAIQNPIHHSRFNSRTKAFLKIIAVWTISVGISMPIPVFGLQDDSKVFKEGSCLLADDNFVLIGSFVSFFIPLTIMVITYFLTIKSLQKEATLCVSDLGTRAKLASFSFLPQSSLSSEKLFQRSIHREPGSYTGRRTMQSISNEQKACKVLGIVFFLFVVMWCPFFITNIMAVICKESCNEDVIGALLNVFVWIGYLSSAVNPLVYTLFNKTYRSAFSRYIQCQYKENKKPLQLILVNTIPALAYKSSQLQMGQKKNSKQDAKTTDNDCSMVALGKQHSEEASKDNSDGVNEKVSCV
Nature of the series: NanoBiT BiLC peptide screening assay (LgBiT–CB1R + SmBiT–5-HT2AR). As to conditions: HEK293 cells transiently expressing LgBiT–CB1R and SmBiT–5-HT2AR, preincubated 1 h with 4 μM peptide, luminescence normalized to vehicle, n ≥ 5. Type of series: cell-based. As for the experimental part: Figure 5. Identification of a small-stapled TM peptide disrupting 5-HT2AR–CB1R heteromers. A, schematic representation of the NanoBiT assay using N-terminally labeled constructs. In B, HEK293 cells transiently expressing the LgBT–CB1R and SmBiT–5-HT2AR complementary pairs were preincubated for 1 h at 37 °C with the indicated peptides (4 μM) or vehicle prior to luminescence recording. Data are mean RLU ± S.E. (error bars) (n ≥ 5) percentage of luminescence normalized to vehicle-treated cells. Statistical significance was evaluated by one-way ANOVA followed by Bonferroni post hoc tests, indicating significant differences over vehicle-treated cells (***, p ≤ 0.001; ****, p ≤ 0.0001) and for peptide 10 over its related peptides (####, p ≤ 0.0001). Peptide 10 potency (C) was evaluated as in A over increasing peptide concentrations (bottom) (n = 3). Alternatively, to assess the kinetics of the peptide 10–driven heteromer disruption (D), prior to the administration of the peptide, the cells were preincubated with substrate, and the luminescence was recorded over the following 30 min. Data are mean RLU ± S.E. (n ≥ 3) percentage of luminescence normalized to vehicle-treated cells.
To assess GPCR protein–protein interactions with the NanoBiT technology, HEK293 cells (50,000 cells/well) were seeded in poly-D-lysine–coated white clear bottom 96-well plates and reverse-transfected (see above) with the plasmids encoding the complementary NanoBiT hemiprotein fragments. For orientation screenings, cells were transfected with two different concentrations (50 and 100 ng/well) of each receptor alone or in combination with the investigated partner (see figure legends) in the presence of empty vector (pcDNA3.1(+)) to normalize the total amount of DNA/well. For studies in the presence of increasing nontagged receptor competitors, 100 ng of each receptor pair (CB1R LgBiT + CB1R SmBiT, 5-HT2AR LgBiT + 5-HT2AR SmBiT, and 5-HT2AR LgBiT + CB1R SmBiT) were co-transfected with increasing concentrations of the different nontagged constructs (from 0 to 300 ng/well), and the total amounts of DNA/well were normalized with empty vector (pcDNA3.1(+)). For the screening of stapled peptides, 50 ng/well of both LgBiT CB1R and SmBiT 5-HT2AR were reverse-transfected as detailed previously. 24 h post- transfection, the cell culture medium was removed, and the cells were starved in FBS-free DMEM for 4 h at 37 °C in a 5% CO2 humidified atmosphere. The cell culture medium was replaced by 100 μl of NanoBiT assay buffer (same as for cAMP measurements), and the plates were pre-equilibrated for 1 h at RT in the dark. When peptide pretreatment was required, peptides were added over this pre-equilibration step, except when studying inhibition kinetics, when the peptides were administered immediately after the baseline luminescence recording. 25 μl/well of a 5× solution of the Nano-Glo® live cell reagent containing the cell-permeable furimazine substrate dissolved in Nano-Glo® LCS dilution buffer were added, and the luminescence was immediately monitored in CLARIOstar® Multimode Plate Reader (BMG Labtech) with no lens (1-s integration time/well for 1 h every minute).
as §2

Series [3] has as its target T3, trypsin from porcine pancreas (Sus scrofa, UniProt P00761).
T3 construct: purchased Sigma; host or cells: porcine pancreas
As to the kind of experiment: Proteolytic stability against trypsin. The series is classed as in vitro ADME. The following applies: for half-life at 55.5 μM: pig, isolated enzyme trypsin. The method, then:
as §1, §2
To 100 μl of peptide solution (100 μM, dissolved in ammonium bicarbonate buffer, pH 7.5), 60 μl of ammonium bicarbonate buffer (pH 7.5) was added, together with 20 μl of temperature-equilibrated (37 ± 1 °C) trypsin (5 μg/ml) from porcine pancreas (Sigma, 13,000–20,000 BAEE units/mg of protein). Peptides were incubated for 15, 30, 60, 120, 240, and 480 min, and then MeOH (HPLC Grade) + 0.05% TFA was added. The samples were then centrifuged (15,000 rpm), and the supernatant was analyzed, using Fmoc-Gly (10 μl, 0.2 mM) as an internal standard. The digestion at each time point was repeated three times to give the average values along with S.D. The amount of intact peptide that remained in the mixture was quantified by RP-HPLC. The experiment was repeated twice on different days.

Series [4] can be described thus: Stability in mouse serum. The series is classed as in vitro ADME. The following applies: 11.1 μM peptide, fresh nonsterile mouse serum (200 μl serum + 25 μl peptide solution, pH 7.5 buffer with 10% DMSO), 37 °C, quench 15% TCA in acetonitrile, HPLC, n = 3; read-out: Half-life (hours), mouse serum (converted). As for the experimental part: as §1, §2
To 200 μl of fresh nonsterile mouse serum was added 25 μl of peptide solution (100 μM, dissolved in ammonium bicarbonate buffer, pH 7.5, containing 10% DMSO), and the mixture was incubated at 37 °C. At the specified time, an aliquot of incubation mixture was withdrawn and quenched by the addition of an equal volume of 15% TCA in acetonitrile to precipitate out serum proteins over ice for 30 min. The mixture was then centrifuged at 13,500 rpm for 10 min, and the supernatant was collected and analyzed by HPLC in a similar manner as described previously. The experiment was repeated twice on different days.

T3 sequence (P00761 9-231): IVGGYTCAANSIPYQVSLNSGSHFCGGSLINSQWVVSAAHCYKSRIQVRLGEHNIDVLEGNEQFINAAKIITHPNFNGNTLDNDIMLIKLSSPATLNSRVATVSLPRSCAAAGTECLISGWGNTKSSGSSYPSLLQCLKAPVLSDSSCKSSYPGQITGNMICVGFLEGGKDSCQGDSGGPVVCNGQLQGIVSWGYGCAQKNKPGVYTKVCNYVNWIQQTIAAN

For orientation: half-life means the time in which the quantity being followed falls by half. For `CCCC[C@@H]1NC(=O)[C@H](Cc2ccc(O)cc2)NC(=O)[C@@](C)(NC(=O)[C@H](Cc2ccc(O)cc2)NC(=O)[C@@H](N)C(C)C)CCC/C=C\CCC[C@@](C)(C(=O)N[C@H](C(=O)N[C@@H](CC(C)C)C(=O)N[C@@H](Cc2c[nH]c3ccccc23)C(N)=O)[C@@H](C)CC)NC1=O` [Peptide 9] (H-VY[S5]Y[Nle][S5]ILW-NH2; staple (Z) 3-6), the half-life at 55.5 μM in series [1] (pH 7.5) was found to be 198 min; in series [3] (pH 7.5, Half-life (min), trypsin), 178 min. The “half-life in chymotrypsin as stated in text” value in series [1] (pH 7.5) is 5 to 6 h. In series [2], the “effect on NanoBiT luminescence (heteromer disruption)” value was “neither the version lacking the TAT amino acid sequence, compound 9, nor the nonstaple, compound 11, peptides induced any change”.
`CCCC[C@@H]1NC(=O)[C@H](Cc2ccc(O)cc2)NC(=O)[C@@](C)(NC(=O)[C@H](Cc2ccc(O)cc2)NC(=O)[C@@H](N)C(C)C)CCCC=CCCC[C@@](C)(C(=O)N[C@@H](CC(C)C)C(=O)N[C@@H](Cc2c[nH]c3ccccc23)C(=O)NCC(=O)N[C@@H](CCCNC(=N)N)C(=O)N[C@@H](CCCCN)C(=O)N[C@@H](CCCCN)C(=O)N[C@@H](CCCNC(=N)N)C(=O)N[C@@H](CCCNC(=N)N)C(=O)N[C@@H](CCC(N)=O)C(=O)N[C@@H](CCCNC(=N)N)C(=O)N[C@@H](CCCNC(=N)N)C(=O)N[C@@H](CCCNC(=N)N)C(N)=O)NC(=O)[C@H](Cc2ccc(O)cc2)NC1=O` [Peptide 10] (H-VY[S5]Y[Nle]Y[S5]LWGRKKRRQRRR-NH2; staple 3-7): the half-life at 55.5 μM in series [1] (55.5 μM peptide, 0.55 μg/ml α-chymotrypsin from bovine pancreas, ammonium bicarbonate buffer pH 7.5, 37 °C, 15–480 min, intact peptide by RP-HPLC, n = 3, nonlinear regression fit, read-out: Half-life (min), α-chymotrypsin) was 63 min; in series [3] (55.5 μM peptide, 0.55 μg/ml trypsin from porcine pancreas, ammonium bicarbonate buffer pH 7.5, 37 °C, 15–480 min, intact peptide by RP-HPLC (Fmoc-Gly internal standard), n = 3, nonlinear regression fit, read-out: Half-life (min), trypsin), 75 min. In addition, the “chymotrypsin resistance improvement over full-length TM-TAT peptides” value in series [1] (versus full-length TM7-TAT, TM6-TAT and TM5-TAT) was around 2 fold. In series [4], the half-life at 11.1 μM is 11.7 h. In addition, the “enhancement in trypsin resistance (half-life) over control peptides” value in series [3] (versus TM7-TAT, TM6-TAT and TM5-TAT control peptides, trypsin 0.55 μg/ml) is listed as 2–3 fold.

The values are drawn from publication PMC6851324, “Design and development of stapled transmembrane peptides that disrupt the activity of G-protein–coupled receptor oligomers” (The Journal of Biological Chemistry, 2019).
